Results from US10820591B2, “Substituted sulfonyl amides for controlling animal pests” (Bayer Aktiengesellschaft, priority 2016, dated 2020).

Each molecule was assayed on Meloidogyne incognita (assay: Meloidogyne incognita test (sand, lettuce, gall formation)). Conditions: Meloidogyne incognita, 336 h, 20 ppm, after 14 days; read-out: nematicidal efficacy (formation of galls).
Assay type: in vivo
In short: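 Vessels held sand, diluted compound solution, M. incognita egg/larvae suspension and lettuce seeds, and the plants grew for 14 days. Efficacy in % came from root gall formation: 100% means no galls, 0% means galls equal to the untreated control.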

Going from `O=C(NS(=O)(=O)c1ccccc1)c1cn(-c2cc(F)cc(C(F)(F)F)c2)cn1` [I-301] to `O=C(NS(=O)(=O)c1ccccc1)c1cn(-c2cc(Cl)c(Cl)c(Cl)c2)cn1` [I-304], the pest or weed control at 20 ppm falls from 100% to 90%.

Going from `O=C(NS(=O)(=O)c1ccccc1Cl)c1cn(-c2cc(Cl)c(Cl)c(Cl)c2)cn1` [I-302] to `O=C(NS(=O)(=O)c1ccccc1Cl)c1cn(-c2cc(Cl)c(Br)c(Cl)c2)cn1` [I-311], the pest or weed control at 20 ppm falls from 100% to 90%.

`COc1ccc(Cl)c(S(=O)(=O)NC(=O)c2cn(-c3cc(Cl)c(Cl)c(Cl)c3)cn2)c1` [I-303] and `O=C(NS(=O)(=O)c1ccc(Cl)cc1Cl)c1cn(-c2cc(Cl)c(Cl)c(Cl)c2)cn1` [I-306] are the same in pest or weed control at 20 ppm: 90% for the first, 90% for the second.

`O=C(NS(=O)(=O)c1c(Cl)cccc1Cl)c1cn(-c2cc(Cl)c(Cl)c(Cl)c2)cn1` [I-305] and `O=C(NS(=O)(=O)c1c(Cl)cccc1Cl)c1cn(-c2cc(Cl)c(Br)c(Cl)c2)cn1` [I-313] are the same in pest or weed control at 20 ppm: 90% for the first, 90% for the second.

First: O=C(NS(=O)(=O)c1ccccc1Cl)c1cn(-c2cc(F)c(F)c(F)c2)cn1 [I-307]
Second: O=C(NS(=O)(=O)c1ccccc1Cl)c1cn(-c2cc(F)c(Br)c(F)c2)cn1 [I-308]
The pest or weed control at 20 ppm of the first is higher: 100% for the first, 90% for the second.

`O=C(NS(=O)(=O)c1ccc(Cl)cc1Cl)c1cn(-c2cc(Cl)cc(C(F)(F)F)c2)cn1` [I-309] and `COc1ccc(F)c(S(=O)(=O)NC(=O)c2cn(-c3cc(Cl)cc(C(F)(F)F)c3)cn2)c1` [I-335] are the same in pest or weed control at 20 ppm: 90% for the first, 90% for the second.

`O=C(NS(=O)(=O)c1ccccc1Cl)c1cn(-c2cc(F)cc(F)c2Cl)cn1` [I-310] and `Cc1nc(C(=O)NS(=O)(=O)c2ccccc2Cl)cn1-c1cc(F)cc(Cl)c1` [I-327] are the same in pest or weed control at 20 ppm: 100% for the first, 100% for the second.

Going from `O=C(NS(=O)(=O)c1ccccc1)c1cn(-c2cc(Cl)c(Br)c(Cl)c2)cn1` [I-312] to `Cc1nc(C(=O)NS(=O)(=O)c2ccccc2)cn1-c1cc(Cl)cc(Cl)c1` [I-315], the pest or weed control at 20 ppm rises from 90% to 100%.

`COc1ccc(Cl)c(S(=O)(=O)NC(=O)c2cn(-c3cc(Cl)cc(Cl)c3)c(C)n2)c1` [I-318] and `CCOc1ccc(Cl)c(S(=O)(=O)NC(=O)c2cn(-c3cc(Cl)cc(Cl)c3)c(C)n2)c1` [I-319] are the same in pest or weed control at 20 ppm: 100% for the first, 100% for the second.

First: COc1ccc(Cl)c(S(=O)(=O)NC(=O)c2cn(-c3cc(F)cc(F)c3)c(C)n2)c1 [I-320]
Second: COc1ccc(Cl)c(S(=O)(=O)NC(=O)c2cn(-c3cc(F)cc(Cl)c3)c(C)n2)c1 [I-321]
The pest or weed control at 20 ppm of the first is higher: 100% for the first, 90% for the second.

`Cc1nc(C(=O)NS(=O)(=O)c2c(Cl)cccc2Cl)cn1-c1cc(F)cc(Cl)c1` [I-322] and `Cc1nc(C(=O)NS(=O)(=O)c2c(Cl)cccc2Cl)cn1-c1cc(F)cc(F)c1` [I-323] are the same in pest or weed control at 20 ppm: 100% for the first, 100% for the second.

`CCOc1ccc(Cl)c(S(=O)(=O)NC(=O)c2cn(-c3cc(Cl)cc(C(F)(F)F)c3)c(C)n2)c1` [I-324] and `COc1ccc(Cl)c(S(=O)(=O)NC(=O)c2cn(-c3cc(F)cc(C(F)(F)F)c3)c(C)n2)c1` [I-332] are the same in pest or weed control at 20 ppm: 100% for the first, 100% for the second.

Going from `Cc1nc(C(=O)NS(=O)(=O)c2c(Cl)cccc2Cl)cn1-c1cc(Cl)cc(C(F)(F)F)c1` [I-325] to `Cc1nc(C(=O)NS(=O)(=O)c2ccccc2Cl)cn1-c1cc(Cl)cc(C(F)(F)F)c1` [I-326], the pest or weed control at 20 ppm rises from 90% to 100%.

Going from `Cc1nc(C(=O)NS(=O)(=O)c2cc(Cl)ccc2Cl)cn1-c1cc(Cl)cc(Cl)c1` [I-328] to `Cc1nc(C(=O)NS(=O)(=O)c2cc(Cl)ccc2Cl)cn1-c1cc(F)cc(F)c1` [I-329], the pest or weed control at 20 ppm rises from 90% to 100%.

`Cc1nc(C(=O)NS(=O)(=O)c2ccccc2Cl)cn1-c1cc(F)cc(F)c1` [I-331] and `Cc1nc(C(=O)NS(=O)(=O)c2ccccc2Cl)cn1-c1cc(F)cc(C(F)(F)F)c1` [I-334] are the same in pest or weed control at 20 ppm: 100% for the first, 100% for the second.

With `COc1ccc(Br)c(S(=O)(=O)NC(=O)c2cn(-c3cc(Cl)cc(C(F)(F)F)c3)cn2)c1` [I-336] the pest or weed control at 20 ppm was 100%.
